# Reference: patent US10159678B2, “Methods to decrease susceptibility to asthmatic bronchoconstriction” (Cornell University, priority 2012, dated 2018)
# Columns and labels:
# [1] = system: Muc5ac; assay: Mucus production (PAS stain, Muc5ac mRNA) after myriocin; format: in vivo; conditions: myriocin-treated mice
# Text: Lung sections were stained with periodic acid-Schiff stain (PAS) and analyzed by light microscopy. Expression of MUC5ac (Mm01276735) was quantified by TaqMan RealTime RT-PCR as described above.
# [2] = system: TRPM7; assay: Lung magnesium homeostasis (TRPM6/TRPM7 mRNA, total lung magnesium) after myriocin; format: in vivo, mice
# Text: It is proportional to the magnesium concentration.
# [3] = system: ORMDL1, ORMDL2 and ORMDL3 mRNA; assay: ORMDL1, 2 and 3 mRNA expression in lung tissue (RealTime RT-PCR); format: in vivo, mice; conditions: 20 μg myriocin; FIG. 2H
# Procedure: RNA was extracted from lungs using TRIzol (Invitrogen). Following reverse transcription of 3 μg RNA, ORMDL1, 2 and 3 mRNAs were amplified using the following primers and probes (Roche Applied Science): RNA levels were quantified using the ΔΔCt method and normalized to expression of murine ribosomal 18s (4310893E, Applied Biosystems). To assess if ORMDL expression was altered with decreased activity of SPT, mRNA expression of ORMDL1, 2 and 3 in lung tissue was analyzed following myriocin treatment and in the Sptlc2^+/− mice. Expression of ORMDL1, 2 or 3 was not affected by myriocin (FIG. 2H) or by genetic SPT deficiency (FIG. 2I).
smiles,measurement,setting,value
CCCCCCC(=O)CCCCCC/C=C/C[C@@H](O)[C@H](O)[C@@](N)(CO)C(=O)O [myriocin],mucus-producing cells on PAS-stained lung sections,[1],No differences
same,Expression of Muc5ac in the lungs,[1]; FIG. 4K,unchanged
same,expression of TRPM6,[2]; data not shown,not altered
same,expression of TRPM7 in the lungs,"[2]; mice that had received myriocin, FIG. 5A",increased
same,lung magnesium levels,"[2]; myriocin-treated (20 μg) mice, FIG. 5B",reduced
same,"Expression of ORMDL1, 2 or 3 in lung tissue",[3],not affected
